# Biological target: T1, RORgT (Homo sapiens, UniProt P51449)
# T1 construct: Gal4 (fusion partner); expressed in transfected cells; host or cells: engineered Jurkat cells (Jurkat pEx/Gal/hRORγ CLBD/HYG pG5luc/blast)
# T1 sequence (P51449 267-516): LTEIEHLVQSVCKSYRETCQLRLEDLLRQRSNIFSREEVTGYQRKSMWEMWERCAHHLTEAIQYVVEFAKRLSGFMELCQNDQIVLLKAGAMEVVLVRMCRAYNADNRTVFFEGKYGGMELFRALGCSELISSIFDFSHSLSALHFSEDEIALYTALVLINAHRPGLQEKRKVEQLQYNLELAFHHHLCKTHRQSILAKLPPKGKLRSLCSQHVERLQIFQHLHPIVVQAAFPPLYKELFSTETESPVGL
# Assay: RORgT Gal4 Luciferase Reporter Gene Assay
# Type: cell-based
# Conditions: engineered Jurkat cells overexpressing RORgT (LBD or full length) with Gal4 Luc reporter; 18 hours at 37° C.; 40 μM to 0.67 nM; read-out: RORg_GAL4 EC50
# Outline: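 Cells exposed to compound 18 hours at 37° C, then lysed for luciferase luminescence. Inhibition of constitutive activity expressed as percent reduction of signal window relative to a control compound.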
row,EC50 [nM],Structure (SMILES)
1,316,COc1ccc(Oc2c(Cl)cc(NC(=O)Cc3cnccn3)cc2Cl)cc1C(C)C [Example 286]
2,132,COc1ccc(Oc2c(Cl)cc(NC(=O)C3CCCCC3)cc2Cl)cc1C(C)C [Example 287]
3,1270,COC(=O)c1cccc(C(=O)Nc2cc(Cl)c(Oc3ccc(OC)c(C(C)C)c3)c(Cl)c2)c1 [Example 288]
4,1480,COc1ccc(Oc2c(Cl)cc(NC(=O)c3cccc(S(C)(=O)=O)c3)cc2Cl)cc1C(C)C [Example 289]
5,524,COc1ccc(Oc2c(Cl)cc(NC(=O)CCC(C)C)cc2Cl)cc1C(C)C [Example 290]
6,134,COc1ccc(Oc2c(Cl)cc(NC(=O)CCN3CCCC3=O)cc2Cl)cc1C(C)C [Example 291]
7,940,COc1ccc(Oc2c(Cl)cc(NC(=O)C3CC3)cc2Cl)cc1C(C)C [Example 292]
8,3270,COc1ccc(Oc2c(Cl)cc(NC(=O)c3ccc(S(C)(=O)=O)cc3)cc2Cl)cc1C(C)C [Example 293]
9,4520,COc1ccc(Oc2c(Cl)cc(NC(=O)c3cnccn3)cc2Cl)cc1C(C)C [Example 294]
10,308,COC(=O)CCC(=O)Nc1cc(Cl)c(Oc2ccc(OC)c(C(C)C)c2)c(Cl)c1 [Example 295]
11,1010,COc1ccc(Oc2c(Cl)cc(NC(=O)CCN3CCOCC3)cc2Cl)cc1C(C)C [Example 296]
12,44,COc1ccc(Oc2c(Cl)cc(NC(=O)CCn3ccnc3)cc2Cl)cc1C(C)C [Example 297]
13,727,COc1ccc(Oc2c(Cl)cc(NC(=O)CCCN3CCOCC3)cc2Cl)cc1C(C)C [Example 298]
14,20000,COc1ccc(Oc2c(Cl)cc(NC(=O)c3ccccc3)cc2Cl)cc1C(C)C [Example 299]
15,591,COCCC(=O)Nc1cc(Cl)c(Oc2ccc(OC)c(C(C)C)c2)c(Cl)c1 [Example 300]
16,343,COc1ccc(Oc2c(Cl)cc(NC(=O)CC#N)cc2Cl)cc1C(C)C [Example 301]
17,185,COc1ccc(Oc2c(Cl)cc(NC(=O)Cn3ccnc3)cc2Cl)cc1C(C)C [Example 302]
18,858,CCCS(=O)(=O)Nc1cc(Cl)c(Oc2ccc(OC)c(C(C)C)c2)c(Cl)c1 [Example 303]
19,1080,COc1ccc(Oc2c(Cl)cc(NS(=O)(=O)C3CC3)cc2Cl)cc1C(C)C [Example 304]
20,421,COc1ccc(Oc2c(Cl)cc(NS(=O)(=O)C(C)C)cc2Cl)cc1C(C)C [Example 305]
21,1890,CCNC(=O)Nc1cc(Cl)c(Oc2ccc(OC)c(C(C)C)c2)c(Cl)c1 [Example 306]
22,16,CCS(=O)(=O)c1ccc(CC(=O)Nc2cc(Cl)c(Oc3ccc(OC)c(C(C)C)c3)c(Cl)c2)cc1 [Example 307]
23,1280,COc1ccc(Oc2c(Cl)cc3[nH]c(Cc4ccccc4)nc3c2Cl)cc1C(C)C [Example 308]
24,409,COc1ccc(Oc2c(Cl)cc3[nH]c(Cc4cccnc4)nc3c2Cl)cc1C(C)C [Example 309]

row,EC50 [nM],Structure (SMILES)
1,293,CCc1cc(Oc2c(Cl)cc(NC(=O)Cc3cccnc3)cc2Cl)ccc1OC [Example 310]
2,153,COc1ccc(Oc2c(Cl)cc(NC(=O)Cc3cccnc3)cc2Cl)cc1CC(C)C [Example 311]
3,1440,COc1ccc(Oc2c(F)cc(NC(=O)Cc3cccnc3)cc2F)cc1CC(C)C [Example 312]
4,32,CCS(=O)(=O)N1CCN(CC(=O)Nc2cc(Cl)c(Oc3ccc(OC)c(C(C)C)c3)c(Cl)c2)CC1 [Example 313]
5,844,COc1ccc(Oc2c(Cl)cc(NC(=O)CC3CCCN(S(N)(=O)=O)C3)cc2Cl)cc1C(C)C (stereo not drawn) [Example 314]
6,88,COc1ccc(Oc2c(Cl)cc(NC(=O)CN3CCN(S(=O)(=O)C4CC4)CC3)cc2Cl)cc1C(C)C [Example 315]
7,943,COc1ccc(Oc2c(Cl)cc(NC(=O)CC3CCCN(S(=O)(=O)C(C)C)C3)cc2Cl)cc1C(C)C (stereo not drawn) [Example 316]
8,95,COc1ccc(Oc2c(Cl)cc(NC(=O)CC3CCCN(S(=O)(=O)C4CC4)C3)cc2Cl)cc1C(C)C (stereo not drawn) [Example 317]
9,76,COc1ccc(Oc2c(Cl)cc(NC(=O)C[C@H]3CCCN(S(=O)(=O)C4CC4)C3)cc2Cl)cc1C(C)C [Example 318]
10,33,CCS(=O)(=O)N1CCC(CC(=O)Nc2cc(Cl)c(Oc3ccc(OC)c(C(C)C)c3)c(Cl)c2)CC1 [Example 319]
11,177,COc1ccc(Oc2c(Cl)cc(NC(=O)CC3CCN(S(=O)(=O)C4CC4)CC3)cc2Cl)cc1C(C)C [Example 320]
12,149,COc1ccc(Oc2c(Cl)cc(NC(=O)C[C@H]3CCCN(S(=O)(=O)C(C)C)C3)cc2Cl)cc1C(C)C [Example 321]
13,126,CCS(=O)(=O)N1CCCC(CC(=O)Nc2cc(Cl)c(Oc3ccc(OC)c(C(C)C)c3)c(Cl)c2)C1 (stereo not drawn) [Example 322]
14,92,CCS(=O)(=O)N1CCC[C@H](CC(=O)Nc2cc(Cl)c(Oc3ccc(OC)c(C(C)C)c3)c(Cl)c2)C1 [Example 323]
15,214,CC(C)c1cc(Oc2c(Cl)cc(NC(=O)Cc3cccnc3)cc2Cl)ccc1C1CC1 [Example 324]
16,7.2,CC(C)(F)c1cc(F)cc(Oc2c(Cl)cc(NC(=O)Cc3ccc(S(C)(=O)=O)cc3)cc2Cl)c1 [Example 325]
17,10,NS(=O)(=O)c1ccc(CNC(=O)c2ccc(Cl)c(Oc3cc(F)cc(CCC(F)(F)F)c3)c2Cl)cc1 [Example 326]
18,90,CS(=O)(=O)N1CC2(CCN(C(=O)c3ccc(Cl)c(Oc4cc(F)cc(CCC(F)(F)F)c4)c3Cl)CC2)C1 [Example 327]
19,19,CC(C)c1cc(F)cc(Oc2c(Cl)cc(NC(=O)Cc3cccc(S(C)(=O)=O)c3)cc2Cl)c1 [Example 328]
20,32,CC(C)c1cc(F)cc(Oc2c(Cl)cc(NC(=O)Cc3ccc(S(C)(=O)=O)cc3)cc2Cl)c1 [Example 329]
21,237,CC(C)c1cc(F)cc(Oc2c(Cl)cc(NC(=O)CC3CC(=O)NC(=O)C3)cc2Cl)c1 [Example 330]
22,116,CC(C)c1cc(F)cc(Oc2c(Cl)cc(NC(=O)CN3CCC(S(C)(=O)=O)CC3)cc2Cl)c1 [Example 331]
23,7.6,CC(C)c1cc(F)cc(Oc2c(Cl)cc(NC(=O)CN3CCN(S(C)(=O)=O)CC3)cc2Cl)c1 [Example 332]
24,8.1,CC(C)(F)c1cc(F)cc(Oc2c(Cl)cc(NC(=O)CC3CCN(S(C)(=O)=O)CC3)cc2Cl)c1 [Example 333]

row,EC50 [nM],Structure (SMILES)
1,6.6,CC(C)(F)c1cc(F)cc(Oc2c(Cl)cc(NC(=O)CN3CCN(S(C)(=O)=O)CC3)cc2Cl)c1 [Example 334]
2,722,COc1ccc(Oc2c(Cl)cc(NC(=O)Cc3cccnc3)cc2Cl)cc1C(C)(C)O [Example 335]
3,14,COc1ccc(Oc2c(Cl)cc(NC(=O)Cc3ccc(S(C)(=O)=O)cc3)cc2Cl)cc1C(C)(C)F [Example 336]
4,15,CC(C)(F)c1cc(F)cc(Oc2c(Cl)ccc(C(=O)NCc3ccc(S(N)(=O)=O)cc3)c2Cl)c1 [Example 337]
5,1.8,CC(C)(F)c1cc(F)cc(Oc2c(Cl)ccc(C(=O)NCc3ccc(S(C)(=O)=O)cc3)c2Cl)c1 [Example 338]
6,983,COc1ccc(Oc2c(Cl)cc(NC(=O)[C@H]3CC[C@@H](C(=O)OC)CC3)cc2Cl)cc1C(C)C [Example 339]
7,5530,COc1ccc(Oc2c(Cl)cc(NC(=O)CCC(=O)O)cc2Cl)cc1C(C)C [Example 340]
8,75,COc1ccc(Oc2c(Cl)ccc(C(=O)N3CCC4(CC3)CN(C=O)C4)c2Cl)cc1C(C)C [Example 341]
9,136,COc1ccc(Oc2c(Cl)cc(NC(=O)Cc3cncnc3)cc2Cl)cc1C(C)C [Example 342]
10,67,COc1ccc(Oc2c(Cl)cc(NC(=O)Cc3ccc(Cl)nc3)cc2Cl)cc1C(C)C [Example 343]
11,75,COc1ccc(Oc2c(Cl)cc(NC(=O)Cc3ccc(C)nc3)cc2Cl)cc1C(C)C [Example 344]
12,124,COc1ccc(Oc2c(Cl)cc(NC(=O)Cc3cccnc3Cl)cc2Cl)cc1C(C)C [Example 345]
13,816,COc1ccc(Oc2c(Cl)cc(NC(=O)C3(c4cnccn4)CC3)cc2Cl)cc1C(C)C [Example 346]
14,1820,COc1ccc(Oc2c(Cl)cc(NC(=O)c3c[nH]c4ncncc34)cc2Cl)cc1C(C)C [Example 347]
15,372,COc1ccc(Oc2c(Cl)cc(NC(=O)C3(c4cccnc4)CCCCC3)cc2Cl)cc1C(C)C [Example 348]
16,1370,COc1ccc(Oc2c(Cl)cc(NC(=O)c3c[nH]c4ncccc34)cc2Cl)cc1C(C)C [Example 349]
17,2050,COc1ccc(Oc2c(Cl)cc(N)cc2Cl)cc1C(C)C [Example 350]
18,5.7,CC(c1cc(F)cc(Oc2c(Cl)cc(NC(=O)CC3CCN(S(C)(=O)=O)CC3)cc2Cl)c1)C(F)(F)F (stereo not drawn) [Example 351]
19,15,CC(c1cc(F)cc(Oc2c(Cl)cc(NC(=O)CC3CCN(S(C)(=O)=O)CC3)cc2Cl)c1)C(F)(F)F (stereo not drawn) [Example 352]
20,14,CC(c1cc(F)cc(Oc2c(Cl)cc(NC(=O)Cc3ccc(S(C)(=O)=O)cc3)cc2Cl)c1)C(F)(F)F (stereo not drawn) [Example 353]
21,3.5,CC(c1cc(F)cc(Oc2c(Cl)cc(NC(=O)Cc3ccc(S(C)(=O)=O)cc3)cc2Cl)c1)C(F)(F)F (stereo not drawn) [Example 354]
22,16,CC(c1cc(F)cc(Oc2c(Cl)ccc(C(=O)NCc3ccc(S(N)(=O)=O)cc3)c2Cl)c1)C(F)(F)F (stereo not drawn) [Example 355]
23,17,CC(c1cc(F)cc(Oc2c(Cl)ccc(C(=O)NCc3ccc(S(N)(=O)=O)cc3)c2Cl)c1)C(F)(F)F (stereo not drawn) [Example 356]
24,11,CC(c1cc(F)cc(Oc2c(Cl)ccc(C(=O)N3CCC4(CC3)CN(S(C)(=O)=O)C4)c2Cl)c1)C(F)(F)F (stereo not drawn) [Example 357]

# From patent US20220306630A1, “AGONISTS OF ROR GAMMAt” (BRISTOL-MYERS SQUIBB COMPANY, priority 2019, published 2022)
